“And” between values parts separate entries of the source, which are not always exact repeats. Equal values may be shown once.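 96-well plates; 48 h exposure; 5 concentrations. Endpoints by linear interpolation between flanking doses. Not reached: highest tested concentration assigned. At the GI50, growth is halved. TGI marks complete inhibition of growth.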

Holding throughout (assay): NCI tumour cell line growth inhibition, 48 h
For test [1], the system named is CCRF-CEM leukemia.
Test [2] deals with OVCAR-5 ovarian.
For test [3], the system named is SW-620 colon.
The test system of test [4] is OVCAR-8 ovarian.
The test system of test [5] is DU-145 prostate.
The test system of test [6] is KM12 colon.
Test [7] has as its system NCI-H23 lung.
The subject of test [8] is UO-31 renal.
In test [9] the test system is IGROV1 ovarian.
In test [10] the test system is COLO 205 colon.

With `COc1c(O)ccc2c1CN1CCc3cc4c(cc3C1C2)OCO4` (configuration not stated), the TGI in test [1], in [2], in [3], in [4], in [5] and in [6] was more than 100 µM each time. Also, the TGI in [7], in test [8], in [9] and in test [10] was more than 100 µM throughout.
For the compound `CNC(=O)c1cccc(-c2ccc3c(N4CCOC[C@@H]4C)nc(N4CCOC[C@@H]4C)nc3n2)c1`, the GI50 in test [1] was 0.177 µM and 0.217 µM and 0.163 µM; in test [2], 0.0765 µM and 0.122 µM and 0.0739 µM; in [3] it was 0.26 µM and 0.356 µM and 0.293 µM; in test [4], 0.162 µM and 0.313 µM and 0.164 µM; in [5] it was 0.162 µM and 0.302 µM and 0.25 µM; in test [6] it was 0.0947 µM and 0.273 µM and 0.179 µM. Also, the GI50 in [7] was 0.111 µM and 0.273 µM and 0.245 µM; in test [8], 0.0278 µM and 0.0604 µM and 0.0328 µM; in [9], 0.0443 µM and 0.0381 µM and 0.0224 µM; in test [10], 0.0648 µM and 0.204 µM and 0.142 µM. Moreover, the TGI in test [1] is more than 100 µM; in [2] it was 73.7 µM and > 4.52 µM; in test [3] it was more than 100 µM; in test [4], 27.7 µM and > 10 µM and 3.42 µM; in [5], more than 100 µM; in [6], more than 100 µM. Besides, the TGI in test [7] is more than 100 µM.
With `CC(NNC(=S)N1CCCCCC1)c1ccc2ccccc2n1` (configuration not stated), the GI50 in test [1] is 0.765 µM; in [2], 9.5 µM; in test [3] it was 3.23 µM; in test [4], 1.06 µM; in [5], 2.22 µM; in [6] it was 2.57 µM. Also, the GI50 in [7] is 11.8 µM; in [8] it was 0.478 µM; in test [9], 1.85 µM; in [10], 0.284 µM. Moreover, the TGI in [1] was more than 100 µM; in test [2], 38.5 µM; in test [3] it was 33.2 µM; in [4], more than 58.7 µM; in [5] it was 18.2 µM; in test [6], 41.4 µM. Further, the TGI in test [7] was more than 87.1 µM; in [8], 14.1 µM; in test [9] it was 51.3 µM; in test [10] it was 19 µM.
Take `COc1ccc(/C=C\c2cc(OC)c(OC)c(OC)c2)cc1OCC(=O)Nc1nc2ccc(C(F)(F)F)cc2s1`: the GI50 in [1] was 4.27 µM; in test [2], 5.98 µM; in test [3] it was 4.65 µM; in test [4] it was 3.86 µM; in test [5] it was 2.51 µM; in [6], 3.14 µM. Moreover, the GI50 in [7] is 3.9 µM; in [8] it was 3.59 µM; in test [9] it was 4.48 µM; in test [10], 17.1 µM. Moreover, the TGI is more than 100 µM in test [1]; more than 100 µM in test [2]; more than 100 µM in test [3]; more than 100 µM in test [4]; 6.56 µM in test [5]; 11.5 µM in test [6]. The TGI in test [7] was more than 100 µM; in test [8], more than 100 µM; in test [9], more than 100 µM; in test [10], 68 µM.
For the compound `Cc1cc(S(=O)(=O)Nc2nnc(-c3ccccc3)c(-c3ccccc3)n2)c(SCc2ccccc2)cc1Cl`, the GI50 in test [1] was 23.8 µM; in test [2] it was 24.8 µM; in test [3], 20.6 µM; in test [4], 27.2 µM; in test [5] it was 15.2 µM; in test [6], 18.5 µM. The GI50 in test [7] was 22.6 µM; in [8], 26 µM; in [9], 37.3 µM; in [10] it was 23.6 µM. Besides, the TGI in test [1] was 75.5 µM; in [2], 50.3 µM; in [3] it was 44.8 µM; in test [4], 89.7 µM; in test [5] it was 30.7 µM; in test [6] it was 43.1 µM. Moreover, the TGI was 48.1 µM in [7], 73.5 µM in test [8], more than 100 µM in [9] and 48 µM in [10].
Consider `CCOC(CN=c1nc(N(C)C)ss1)OCC`, for which the TGI in test [1] was 4.33 µM; in test [2], 44.1 µM; in test [3], 25.9 µM; in test [4] it was 46.7 µM; in test [5] it was more than 100 µM; in test [6], 38.9 µM. For the same compound, the TGI is 65.8 µM in test [7], 63.3 µM in [8], more than 100 µM in [9] and 7.28 µM in test [10].
With `Cc1ccc2c(=O)c3cccc(CC(=O)O)c3oc2c1C`, the GI50 in test [1], in test [2], in test [3], in test [4], in [5] and in test [6] was more than 100 µM in each case. In addition, the GI50 in test [7], in test [8], in test [9] and in [10] was more than 100 µM each time. In addition, the TGI in test [1], in test [2], in [3], in test [4], in [5] and in test [6] was more than 100 µM each time. For the same compound, the TGI in [7], in [8], in test [9] and in [10] was more than 100 µM throughout.
Consider `C=C1C(=O)O[C@H]2[C@H]1CC/C(Cn1cc(-c3ccccc3)nn1)=C\CC[C@@]1(C)O[C@@H]21`, for which the GI50 was 0.992 µM in [1]; 5.7 µM in test [2]; 1.5 µM in [3]; 2.31 µM in [4]; 2.19 µM in test [5]; 8.48 µM in [6]. The GI50 was 5.38 µM in [7], 0.87 µM in [8], 6.95 µM in test [9] and 1.08 µM in test [10]. The TGI in test [1] turned out to be 4.95 µM; in [2], 13.3 µM; in test [3] it was 6.43 µM; in test [4] it was 8.88 µM; in test [5], 7.92 µM; in [6], 18.7 µM. The TGI in test [7] stood at 12.4 µM; in test [8], 1.96 µM; in test [9], 14.9 µM; in test [10], 2.36 µM.
`O=C1c2ccccc2-c2c1c1ccccc1c(=O)n2CCCN1CCOCC1`: the GI50 in test [1] was more than 38.4 µM; in [2], 35.9 µM; in test [3] it was 20.2 µM; in [4], 7.26 µM; in test [5], 10.1 µM; in test [6], more than 100 µM. Besides, the GI50 in test [7] is 15.4 µM; in test [8], 17.1 µM; in test [9], 8.36 µM; in test [10], more than 100 µM. Moreover, the TGI in test [1] was more than 100 µM; in test [2], more than 100 µM; in test [3], more than 100 µM; in test [4], more than 75.2 µM; in [5] it was more than 82.6 µM; in [6], more than 100 µM. Also, the TGI in test [7] is 41.5 µM; in [8], more than 100 µM; in [9], more than 50.1 µM; in [10], more than 100 µM.
Turning to `O=C1OC(=O)C2C1C1(c3ccccc3)C(c3ccccc3)=C(c3ccccc3)C2(c2ccccc2)S1=O` (configuration not stated), the GI50 in [1], in test [2], in test [3], in test [4], in test [5] and in test [6] was more than 100 µM throughout. The GI50 in test [7], in test [8], in test [9] and in [10] was more than 100 µM each time. Moreover, the TGI in [1], in test [2], in test [3], in test [4], in test [5] and in [6] was more than 100 µM throughout. For the same compound, the TGI in [7], in test [8], in test [9] and in test [10] was more than 100 µM throughout.
With `Cc1cc2c(F)c(Oc3ncnn4cc(OC[C@@H](C)OC(=O)[C@H](C)N)c(C)c34)ccc2[nH]1`, the GI50 in [1] was 5.96 µM; in [2], 14.9 µM; in test [3], 6.33 µM; in test [4], 8.96 µM; in test [5], 11.7 µM; in test [6], 7.68 µM. Also, the GI50 in test [7] was 11.8 µM; in [8], 7.58 µM; in test [9] it was 9.1 µM; in [10] it was 10.7 µM. Further, the TGI in [1] was 23.1 µM; in test [2], 29.2 µM; in test [3], 19.7 µM; in test [4] it was 23.1 µM; in test [5], 24.2 µM; in [6] it was 20.5 µM. Further, the TGI amounted to 25.9 µM in [7], 21.4 µM in [8], 23.4 µM in [9] and 25.1 µM in test [10].
`CN(C)c1ccc2c3c(c(=O)oc2c1)CCC3`: the TGI in test [1], in test [2], in [3], in [4], in test [5] and in [6] was more than 100 µM in each case. The TGI in test [7], in test [8], in [9] and in test [10] was more than 100 µM throughout.

For the origin of these results see PubChem BioAssay (NCI).
